Experimental findings from the supplement of paper PMC11208160 are described below.
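Also: IS621 recombinase and bridge RNA in Escherichia coli cells.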

The nature of the data set: recombinant barcode read abundance after kanamycin selection (control-corrected) (log10(CPM+1)); higher = more efficient recombination; sequences stand for … in AGTGCAGAGAAAATCGGCCAGTTTTCTCTGCCTGCAGTCCGCATGCCGT…AGATTTATGCAGCGGACTGCCTTTCTCCCAAAGTGATAAACCGGACAGTATCATGGACCGGTTTTCCCGGTAATCCGTATTTGCAAGGTTGGTTTCACT; site = the 11-nt target. A digest of the protocol:
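Recombination efficiency comes from barcode counts at recombinant junctions, converted to counts per million, averaged and corrected against the control. Values appear as log10(CPM+1). They were obtained from a pooled E. coli screen in which each oligo paired a target with an IS621 bridge RNA target-binding loop, and cells were plated in duplicate on chloramphenicol/ampicillin LB agar or on chloramphenicol/ampicillin/kanamycin with 0.1 mM IPTG.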
As to “GCTTGGACTTGGGTTCTAACCTGTTGCAG (site CCTTGGACTTT)”, the “recombinant barcode read abundance (log10)” value came out at 0.175. On to “GCTTGGACTTGGGTTCTAACCTGTTGCAG (site GCTTGGACTCT)”, for which the “recombinant barcode read abundance (log10)” value turned out to be 1.72. On to “GGAAGGCCTTGGGTTCTAACCTGTTGCTT (site GGAAGGCCTAA)”, for which the “recombinant barcode read abundance (log10)” value turned out to be 0.221. The value for “GGAAGGCCTTGGGTTCTAACCTGTTGCTT (site TTGGTCACTTG)” was 0.0545. The value for “GGACACTCTTGGGTTCTAACCTGTTGCTA (site GGACACTCTAG)” was 2.32.

Consider “GGACACTCTTGGGTTCTAACCTGTTGCTA (site GGACACTCTTA)”, for which the “recombinant barcode read abundance (log10)” value was found to be 2.15.

Turning to “GGACATTCTTGGGTTCTAACCTGTTGCTT (site GGACATTCTAA)”, the “recombinant barcode read abundance (log10)” value came out at 0.319. With “GGACATTCTTGGGTTCTAACCTGTTGCTT (site TGACATTCTAA)”, the “recombinant barcode read abundance (log10)” value came out at 0.0458.

Regarding “GGACCCTCTTGGGTTCTAACCTGTTGCAC (site GGACCCTCTGT)”, the “recombinant barcode read abundance (log10)” value was determined as 1.76. For “GGACCCTCTTGGGTTCTAACCTGTTGCAC (site TACAAGACTAC)” the value was 0.0797. For “GGACCTCCTTGGGTTCTAACCTGTTGCTT (site GGACCTCCTAA)” the value was 1.33; for “GGACCTCCTTGGGTTCTAACCTGTTGCTT (site GGACCTCCTAC)”, 0.221. The value for “GGACCTCCTTGGGTTCTAACCTGTTGCTT (site GGACCTCCTAG)” was 1.27; that for “GGACCTCCTTGGGTTCTAACCTGTTGCTT (site GGACCTCCTAT)” was 1.32.

Take “GGACGCACTTGGGTTCTAACCTGTTGCGG (site CCTAAGCCTAT)”: the “recombinant barcode read abundance (log10)” value was found to be 0.604. The value for “GGACGCACTTGGGTTCTAACCTGTTGCGG (site GGACGCACTCC)” was 2.4; that for “GGACGCCCTTGGGTTCTAACCTGTTGCCT (site GGACGACCTAG)” was 0.427; that for “GGACGCCCTTGGGTTCTAACCTGTTGCCT (site GGACGCCCTAG)” was 1.35. For “GGACGCCCTTGGGTTCTAACCTGTTGCCT (site GGACGGCCTAG)” the value was 0.186; for “GGACGCCCTTGGGTTCTAACCTGTTGCCT (site GGACGTCCTAG)”, 0.426. The value for “GGACGTCCTTGGGTTCTAACCTGTTGCCT (site GGACGACCTAG)” was 0.0935; that for “GGACGTCCTTGGGTTCTAACCTGTTGCCT (site GGACGCCCTAG)” was 0.369. Take “GGACGTCCTTGGGTTCTAACCTGTTGCCT (site GGACGGCCTAG)”: the “recombinant barcode read abundance (log10)” value worked out at 0.0468. The value for “GGACGTCCTTGGGTTCTAACCTGTTGCCT (site GGACGTCCTAG)” was 0.734. The value for “GGAGAGTCTTGGGTTCTAACCTGTTGCCT (site GAAGAGTCTAG)” was 2.17. Consider “GGAGAGTCTTGGGTTCTAACCTGTTGCCT (site GCAGAGTCTAG)”, for which the “recombinant barcode read abundance (log10)” value was 0.995. Turning to “GGAGAGTCTTGGGTTCTAACCTGTTGCCT (site GGAGAGTCTAG)”, the “recombinant barcode read abundance (log10)” value is 2.45.

For the sequence “GGAGAGTCTTGGGTTCTAACCTGTTGCCT (site GTAGAGTCTAG)”, the “recombinant barcode read abundance (log10)” value stood at 1.09. The value for “GGAGGAACTTGGGTTCTAACCTGTTGCCT (site GGAGGAACTAG)” was 2.39; that for “GGAGGAACTTGGGTTCTAACCTGTTGCCT (site GGAGGTACTAG)” was 0.1. As for “GGAGGACCTTGGGTTCTAACCTGTTGCTT (site GGAAGACCTTA)”, the “recombinant barcode read abundance (log10)” value is 0.19.

“GGAGGACCTTGGGTTCTAACCTGTTGCTT (site GGAGGACCTAA)”: the “recombinant barcode read abundance (log10)” value was 2.4.

“GGAGGGACTTGGGTTCTAACCTGTTGCCT (site GAAGGGACTAG)”: the “recombinant barcode read abundance (log10)” value was found to be 1.38. With “GGAGGGACTTGGGTTCTAACCTGTTGCCT (site GCAGGGACTAG)”, the “recombinant barcode read abundance (log10)” value was determined as 0.658. The value for “GGAGGGACTTGGGTTCTAACCTGTTGCCT (site GGAGGGACTAG)” was 2.69; that for “GGAGGGACTTGGGTTCTAACCTGTTGCCT (site GTAGGGACTAG)” was 1.7; that for “GGAGGTACTTGGGTTCTAACCTGTTGCCT (site GGAGGAACTAG)” was 0.0658. The value for “GGAGGTACTTGGGTTCTAACCTGTTGCCT (site GGAGGTACTAG)” was 1.17; that for “GGAGGTCCTTGGGTTCTAACCTGTTGCTA (site GGAGGTCCTTA)” was 2.08. For “GGAGGTCCTTGGGTTCTAACCTGTTGCTA (site TAAGGTCCTTA)” the value was 0.0399; for “GGAGTACCTTGGGTTCTAACCTGTTGCAT (site CCTCATACTTG)”, 0.0895. Take “GGAGTACCTTGGGTTCTAACCTGTTGCAT (site GGAGTACCTAT)”: the “recombinant barcode read abundance (log10)” value came out at 2.12. For “GGAGTTGCTTGGGTTCTAACCTGTTGCCT (site GGAGATTCTAG)” the value was 0.273; for “GGAGTTGCTTGGGTTCTAACCTGTTGCCT (site GGAGTTGCTAG)”, 2.27. For “GGATACACTTGGGTTCTAACCTGTTGCCT (site GGATACACTAG)” the value was 2.06; for “GGATACACTTGGGTTCTAACCTGTTGCCT (site GGTTACACTAG)”, 0.395; for “GGATCCACTTGGGTTCTAACCTGTTGCCA (site GGATACACTTG)”, 0.049. For “GGATCCACTTGGGTTCTAACCTGTTGCCA (site GGATCCACTTG)” the value was 0.117; for “GGATCCACTTGGGTTCTAACCTGTTGCCA (site GGATGCACTTG)”, 0.0631; for “GGATCCACTTGGGTTCTAACCTGTTGCCA (site GGATTCACTTG)”, 0.0388. “GGATTCCCTTGGGTTCTAACCTGTTGCCA (site GGAGTCCCTTC)”: the “recombinant barcode read abundance (log10)” value amounted to 0.242.

For the sequence “GGATTCCCTTGGGTTCTAACCTGTTGCCA (site GGATTCCCTTG)”, the “recombinant barcode read abundance (log10)” value amounted to 1.15. “GGATTTACTTGGGTTCTAACCTGTTGCCT (site GGATATACTAG)”: the “recombinant barcode read abundance (log10)” value was 0.0849. The value for “GGATTTACTTGGGTTCTAACCTGTTGCCT (site GGATTTACTAG)” was 0.276; that for “GGCAAGACTTGGGTTCTAACCTGTTGCCT (site GGAAAGACTAG)” was 0; that for “GGCAAGACTTGGGTTCTAACCTGTTGCCT (site GGCAAGACTAG)” was 0.185. For “GGCAAGACTTGGGTTCTAACCTGTTGCCT (site GGGAAGACTAG)” the value was 0.154; for “GGCAAGACTTGGGTTCTAACCTGTTGCCT (site GGTAAGACTAG)”, 0.0715; for “GGCACGGCTTGGGTTCTAACCTGTTGCCT (site GGCACAGCTAG)”, 0.519. The value for “GGCACGGCTTGGGTTCTAACCTGTTGCCT (site GGCACCGCTAG)” was 0.0995; that for “GGCACGGCTTGGGTTCTAACCTGTTGCCT (site GGCACGGCTAG)” was 0.134.

For “GGCACGGCTTGGGTTCTAACCTGTTGCCT (site GGCACTGCTAG)”, the “recombinant barcode read abundance (log10)” value was 0.11. For “GGCAGGTCTTGGGTTCTAACCTGTTGCTT (site GGCAGATCTAA)” the value was 0.163. “GGCAGGTCTTGGGTTCTAACCTGTTGCTT (site GGCAGCTCTAA)”: the “recombinant barcode read abundance (log10)” value stood at 0.0728. With “GGCAGGTCTTGGGTTCTAACCTGTTGCTT (site GGCAGGTCTAA)”, the “recombinant barcode read abundance (log10)” value came to 0.795. The value for “GGCAGGTCTTGGGTTCTAACCTGTTGCTT (site GGCAGTTCTAA)” was 0.044; that for “GGCAGTTCTTGGGTTCTAACCTGTTGCTT (site GGCAGATCTAA)” was 0.0437. The value for “GGCAGTTCTTGGGTTCTAACCTGTTGCTT (site GGCAGCTCTAA)” was 0.0661; that for “GGCAGTTCTTGGGTTCTAACCTGTTGCTT (site GGCAGGTCTAA)” was 0.0765; that for “GGCAGTTCTTGGGTTCTAACCTGTTGCTT (site GGCAGTTCTAA)” was 0.0537. The value for “GGCCCCTCTTGGGTTCTAACCTGTTGCCG (site CGCGCCTCTCG)” was 0.368; that for “GGCCCCTCTTGGGTTCTAACCTGTTGCCG (site GGCCCCTCTCG)” was 1.8. Consider “GGCCGAACTTGGGTTCTAACCTGTTGCCT (site AGCCGAACTAG)”, for which the “recombinant barcode read abundance (log10)” value was found to be 0.112. For “GGCCGAACTTGGGTTCTAACCTGTTGCCT (site CGCCGAACTAG)” the value was 0.0639; for “GGCCGAACTTGGGTTCTAACCTGTTGCCT (site GGCCGAACTAG)”, 0.211; for “GGCCGAACTTGGGTTCTAACCTGTTGCCT (site TGCCGAACTAG)”, 0.144.

Consider “GGCCGGGCTTGGGTTCTAACCTGTTGCGG (site GCCCGGGCTCC)”, for which the “recombinant barcode read abundance (log10)” value was 0.286.
